The record followed here is patent US20040068006A1, “Method for preventing acute renal failure” (Critical Therapeutics, Inc., priority 2001, published 2004).

The structures appear in SMILES notation.

The assay relates to sepsis-induced acute renal failure. The experiment in a line: Cecal ligation puncture (CLP) sepsis-induced acute renal failure in aged mice. Type of assay: in vivo, mouse. Particulars: for HPLC creatinine: mean±SE. As to the method:
Animal care followed NIH criteria for the care and use of laboratory animals in research. Young (7-8 weeks) and aged (42-44 weeks) male C57BL/6 mice [National Institutes of Health (NIH), Frederick, Md.] had free access to water and chow (NIH-07) Rodent chow, Zeigler Bros., Gardners, Pa.) before and after surgery.
Aged mice were anesthetized with 100 mg/kg ketamine, 10 mg/kg xylazine, and 1 mg/kg acepromazine IM. After laparotomy, a 5-0 silk ligature was placed 5 mm from the cecal tip. The cecum was punctured twice with a 21-gauge needle and gently squeezed to express a 1 mm column of fecal material. In sham operated animals, the cecum was located, but neither ligated nor punctured. The abdominal incision was closed in two layers with 6-0 nylon sutures. After surgery, one ml of pre-warmed normal saline was given IP. All animals received a broad spectrum antibiotic (imipenem/cilastatin; 25 mg/kg SC), then 1.5 ml of 3/4 saline was administered at 6 and 18 hr after surgery by SC injection. At the time of sacrifice, blood was collected from abdominal aorta for measurement of blood chemistries. The kidneys were harvested for histological and mechanistic studies.
Survival after surgery was assessed every 6 hr within the first 48 hr and then every 8 hr for 4 days. Antibiotic injection and fluid resuscitation were started 6 hr after CLP by SC injection, and then repeated every 12 hr for 4 days.
Animals received 0.4 ml of Ringers lactate (RL) [130 mM Na+, 4 mM K+, 2.7 mM Ca+, 109 mM Cl^−, and 28 mM lactate] or a similar volume of freshly-made Ringers ethyl pyruvate (EP) where EP (Sigma) was substituted for sodium lactate. A single dose was injected IP at 0, 6, or 12 hr after CLP surgery.
Serum levels of blood urea nitrogen (BUN), aspartate transaminase (AST), alanine transaminase (ALT), amylase, creatine kinase (CK) and lactate dehydrogenase (LDH) were measured using an autoanalyzer (Hitachi 917, Boehringer Mannheim, Indianapolis, MN). Serum creatinine were measured by a picric acid-based colorimetric kinetic autoanalyzer (Astra 8 autoanalyzer; Beckman Instruments, Fullerton, Calif.). Serum […] was also measured by high-performance liquid chromatography (HPLC) Johns et al., B Biomed. Sci. Appl. 759:343 (2001)). Acetonitrile was added to serum, centrifuged, and the supernatant fraction was dried, resuspended in 5 mM sodium acetate pH 5.1, and chromatrographed isocratically on a PRP-X200 cation exchange column (Hamilton, Reno Nev.) and detected by UV absorbance at 234 nm (Agilent Technologies, Palo Alto, Calif.).
10% Formalin-fixed and paraffin-embedded kidney sections were stained with periodic acid-Schiff reagent (PAS) or naphthol AS-D chloroacetate esterase (Sigma; St. Louis, Mo.). Histological changes in the cortex and in the outer stripe of the outer medulla (OSOM) were assessed by quantitative measurements of tissue damage. Tubular damage was defined as tubular epithelial swelling, loss of brush border, vacuolar degeneration, necrotic tubules, cast formation, and desquamation. The degree of kidney damage was estimated at 400× magnification using 5 randomly selected fields for each animal by the following criteria: 0, normal; 1, areas of damage <25% of tubules; 2, damage involving 25-50% of tubules, 3, damage involving 50 to 75% of tubules; 4, 75-100% of the area being affected.
All data are expressed as means±SE. Differences between groups were examined for statistical significance by ANOVA with a multiple comparison correction (StatView 4.5, Berkeley, Calif.; or SigmaStat 2.0, SPSS, San Rafael, Calif.). A P value <0.05 was accepted as statistically significant.

`CCOC(=O)C(C)=O` [EP, ethyl pyruvate]: under “EP at 0, 6 or 12 hr after CLP, measured at 24 hr”, the “tubular damage in cortex and OSOM” value is reported as “significantly reduced the tubular damage”. For the same compound, the HPLC creatinine was determined as 0.13 ± 0.01 mg/dL (higher dose (40 mg/kg) EP, single IP dose delayed until 6 hr after surgery); 0.17 ± 0.03 mg/dL (higher dose (40 mg/kg) EP, single IP dose delayed until 12 hr after surgery); 0.17 ± 0.02 mg/dL (single IP dose 8 mg/kg EP after CLP surgery (0 hr), RL vehicle 0.33±0.07 mg/dl); 0.14 ± 0.02 mg/dL (single IP dose 40 mg/kg EP after CLP surgery (0 hr), RL vehicle 0.33±0.07 mg/dl). Moreover, for the setting “single dose of either 8 or 40 mg/kg EP after surgery, vs. RL”, the “renal injury as measured by BUN or HPLC creatinine” value was “significantly prevented the renal injury”. For the setting “summary statement referring to Example 1”, the acute renal failure entry was “inhibits acute renal failure”. Moreover, where the note is “treatment start after CLP surgery”, the “therapeutic window for sepsis-induced acute renal failure” value is no less than 12 h. Moreover, the “amount of protection for tubular injury score” value (without much change with delayed treatment (up to 12 hr)) was 60-80%.
